Measured values published in patent US8362000B2, “Azetidinyl diamides as monoacylglycerol lipase inhibitors” (Janssen Pharmaceutica NV, priority 2009, dated 2013).
Substitutions are numbered along the chain they refer to. Like-named read-outs stand apart in the source and are kept apart here.

Columns and labels:
mutant MGL = biological target: T1, mutant MGL (Homo sapiens, UniProt Q99685, L169S/L176S); experiment: MGL ThermoFluor assay - mutant; assay type: binding
T1 sequence (Q99685 1-303 L169S/L176S): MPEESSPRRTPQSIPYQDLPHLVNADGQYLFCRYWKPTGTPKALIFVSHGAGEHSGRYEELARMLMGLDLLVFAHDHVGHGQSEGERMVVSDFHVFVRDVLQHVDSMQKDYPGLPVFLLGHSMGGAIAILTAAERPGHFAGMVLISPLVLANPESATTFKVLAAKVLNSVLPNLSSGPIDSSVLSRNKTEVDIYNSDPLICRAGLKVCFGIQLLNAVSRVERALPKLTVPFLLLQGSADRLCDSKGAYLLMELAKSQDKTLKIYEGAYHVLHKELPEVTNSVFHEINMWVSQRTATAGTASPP

[1] = biological target: T2, purified wild type MGL (wt-MGLL 6H-11-313) (Homo sapiens, UniProt Q99685)
T2 sequence (Q99685 1-303): T1 sequence (Q99685 1-303 L169S/L176S) with S169L, S176L

[2] = ThermoFluor concentration-response, read-out: MGL mutant ThermoFluor Kd
[3] = ThermoFluor, compound concentration measured by qNMR, read-out: MGL mutant ThermoFluor qKd (μM) (using qNMR conc.)
[4] = ThermoFluor thermal stability binding assay, read-out: MGL mutant ThermoFluor Kd
[5] = compound concentration measured by qNMR, read-out: MGL mutant ThermoFluor qKd (using qNMR conc.)
[6] = ThermoFluor, compound concentration measured by qNMR, read-out: MGL mutant ThermoFluor qKd (using qNMR conc.)

Row | SMILES | Kd (mutant MGL; [2]) | IC50 [1] | also measured
1 | O=C(c1cscn1)N1CC(N2CCN(C(=O)c3cc4cc(Cl)ccc4o3)CC2)C1 [Cpd 809] | 0.769 µM | 2.1 µM | 
2 | O=C(c1cc2cc(Cl)ccc2o1)N1CC(N2CCN(C(=O)c3nccs3)CC2)C1 [Cpd 818] | 1 µM | 2.7 µM | 
3 | O=C(c1ccc(-c2cccc(C(F)(F)F)c2)cc1)N1CC(N2CCN(C(=O)C3CC3)CC2)C1 [Cpd 1057] |  | 0.006 µM | Kd (mutant MGL; [3]): 0.016 µM
4 | O=C(c1ccc(-c2cccc(C(F)(F)F)c2)cc1)N1CCN(C2CN(C(=O)c3cc[nH]c3)C2)CC1 [Cpd 1243, 1-[1-(1H-Pyrrol-3-ylcarbonyl)azetidin-3-yl]-4-{[3′-(trifluoromethyl)biphenyl-4-yl]carbonyl}piperazine] | 0.033 µM | 0.463 µM | 
5 | Cc1c(C(=O)N2CC(N3CCN(C(=O)c4nccs4)CC3)C2)oc2ccc(F)cc12 [Cpd 751] | 1.32 µM | 0.402 µM | 
6 | O=C(c1ccc(-c2ccccc2)cc1)N1CCN(C2CN(C(=O)c3cscn3)C2)C2(CC2)C1 [Cpd 1286] |  | 2.42 µM | Kd (mutant MGL; [4]): 0.032 µM
7 | N#Cc1ccc(N2CCC(C(=O)N3CC(N4CCN(C(=O)c5nccs5)CC4)C3)CC2)cc1 [Cpd 646] | 1.61 µM | 7.16 µM | 
8 | O=C(c1cscn1)N1CCN(C2CN(C(=O)c3cc4nc(C(F)(F)F)ccc4[nH]3)C2)CC1 [Cpd 1450] |  | > 16.7 µM | Kd (mutant MGL; [3]): 12.6 µM
9 | O=C(c1ccccc1)N1CCN(C2CN(C(=O)c3ccc4c(ccn4-c4cc(F)ccc4F)c3)C2)CC1 [Cpd 578] |  | 0.063 µM | Kd (mutant MGL; [3]): 0.195 µM
10 | O=C(c1ccc2c(c1)ncn2CC(F)(F)F)N1CC(N2CCN(C(=O)c3cscn3)CC2)C1 [Cpd 841] |  | 5.26 µM | Kd (mutant MGL; [5]): 0.917 µM
11 | O=C(c1ccc2c(-c3cccc(F)c3)c[nH]c2c1)N1CC(N2CCN(C(=O)c3nccs3)CC2)C1 [Cpd 1319] |  | < 0.005 µM | Kd (mutant MGL; [5]): 0.001 µM
12 | O=C(c1ccc(-c2nc(-c3ccccc3Cl)cs2)cc1)N1CC(N2CCN(C(=O)c3nccs3)CC2)C1 [Cpd 1328] | 0.002 µM | < 0.005 µM | 
13 | O=C(c1ccccc1)N1CCN(C2CN(C(=O)c3cccc4[nH]c(-c5ccccc5)nc34)C2)CC1 [Cpd 601] |  | 1.55 µM | Kd (mutant MGL; [4]): 0.527 µM
14 | O=C(c1ccc(-c2ccccc2)cc1)N1CCN(C2CN(C(=O)c3cc[nH]c3)C2)CC1 [Cpd 1292, 1-(Biphenyl-4-ylcarbonyl)-4-[1-(1H-pyrrol-3-ylcarbonyl)azetidin-3-yl]piperazine] | 0.631 µM | 3.07 µM | 
15 | O=C(c1ccccc1)N1CCN(C2CN(C(=O)c3sc4cc(C(F)(F)F)ccc4c3-c3ccccc3)C2)CC1 [Cpd 591] |  | 0.212 µM | Kd (mutant MGL; [4]): 0.007 µM
16 | O=C(c1ccc2c(ccn2-c2ccc(F)cc2)c1)N1CC(N2CCN(C(=O)c3ncco3)CC2)C1 [Cpd 1426] |  | < 0.005 µM | Kd (mutant MGL; [3]): 0.029 µM
17 | Cc1nc2cc(C(=O)N3CC(N4CCN(C(=O)c5ccccc5)CC4)C3)ccc2n1C1CCCCC1 [Cpd 37, 1-Cyclohexyl-2-methyl-5-({3-[4-(phenylcarbonyl)piperazin-1-yl]azetidin-1-yl}carbonyl)-1H-benzimidazole] | 0.1 µM | 5.99 µM | 
18 | Cc1cc(C(=O)N2CC(N3CCN(C(=O)c4nccs4)CC3)C2)ccc1Br [Cpd 727] |  | 0.219 µM | Kd (mutant MGL; [6]): 0.251 µM
19 | O=C(c1ccc2c(ccn2CC(F)F)c1)N1CC(N2CCN(C(=O)c3nccs3)CC2)C1 [Cpd 711, 1-(2,2-Difluoroethyl)-5-({3-[4-(1,3-thiazol-2-ylcarbonyl)piperazin-1-yl]azetidin-1-yl}carbonyl)-1H-indole] |  | 0.127 µM | Kd (mutant MGL; [5]): 0.05 µM
20 | O=C(c1ccc(-n2cc(-c3ccc(Cl)cc3)cn2)cc1)N1CC(N2CCN(C(=O)c3nccs3)CC2)C1 [Cpd 1334] |  | < 0.005 µM | Kd (mutant MGL; [3]): 0.08 µM
21 | O=C(c1cscn1)N1CCN(C2CN(C(=O)c3cc4ccc(C(F)(F)F)nc4o3)C2)CC1 [Cpd 808] | 62.5 µM | 2.08 µM | 
22 | COc1ccc2cc(C(=O)N3CC(N4CCN(C(=O)c5nccs5)CC4)C3)c(C)nc2c1 [Cpd 845] |  | 6.42 µM | Kd (mutant MGL; [6]): 1.62 µM
23 | O=C(c1cc(Br)cs1)N1CC(N2CCN(C(=O)c3nccs3)CC2)C1 [Cpd 806] |  | 2.05 µM | Kd (mutant MGL; [3]): 0.989 µM
24 | N#Cc1cc(-n2ccc3cc(C(=O)N4CC(N5CCN(C(=O)c6nccs6)CC5)C4)ccc32)ccc1F [Cpd 1417, 2-Fluoro-5-[5-({3-[4-(1,3-thiazol-2-ylcarbonyl)piperazin-1-yl]azetidin-1-yl}carbonyl)-1H-indol-1-yl]benzonitrile] | 0.025 µM | < 0.005 µM | 

Row | SMILES | Kd (mutant MGL; [2]) | IC50 [1] | also measured
25 | O=C(c1ccc(-c2cccc(C(F)(F)F)c2)cc1)N1CC(N2CCN(C(=O)c3ccon3)CC2)C1 [Cpd 1145] |  | 0.031 µM | Kd (mutant MGL; [3]): 0.061 µM
26 | O=C(c1nc2cc(F)ccc2[nH]1)N1CC(N2CCN(C(=O)c3nccs3)CC2)C1 [Cpd 1443] |  | > 16.7 µM | Kd (mutant MGL; [4]): > 31.2 µM
27 | O=C(c1ccc2c(c1)[nH]c(=O)n2C1CCC(F)(F)CC1)N1CC(N2CCN(C(=O)c3cscn3)CC2)C1 [Cpd 945] | 0.083 µM | 1.48 µM | 
28 | Cc1c(C(=O)N2CCN(C3CN(C(=O)c4nccs4)C3)CC2)sc2cc(C(F)(F)F)ccc12 [Cpd 704] | 0.017 µM | 0.096 µM | 
29 | O=C(c1nccs1)N1CC(N2CCN(C(=O)c3ccc(-c4ccccc4)cc3)C(Cc3ccccc3)C2)C1 (stereo not shown) [Cpd 1266, 2-Benzyl-1-(biphenyl-4-ylcarbonyl)-4-[1-(1,3-thiazol-2-ylcarbonyl)azetidin-3-yl]piperazine] | 0.032 µM | 1.08 µM | 
30 | CC1(C)Cc2cc(C(=O)N3CC(N4CCN(C(=O)c5nccs5)CC4)C3)ccc2O1 [Cpd 766] |  | 0.68 µM | Kd (mutant MGL; [6]): 0.378 µM
31 | O=C(c1ccc2c(cnn2Cc2ccc(F)cc2)c1)N1CC(N2CCN(C(=O)c3nccs3)CC2)C1 [Cpd 1029, 1-(4-Fluorobenzyl)-5-({3-[4-(1,3-thiazol-2-ylcarbonyl)piperazin-1-yl]azetidin-1-yl}carbonyl)-1H-indazole] |  | < 0.005 µM | Kd (mutant MGL; [5]): 0.006 µM
32 | Cc1c(C(=O)N2CCN(C3CN(C(=O)c4ccc[nH]4)C3)CC2)n(C)c2ccc(Cl)cc12 [Cpd 839] |  | 5.14 µM | Kd (mutant MGL; [6]): 2.5 µM
33 | O=C(c1nccs1)N1CCN(C2CN(C(=O)c3cccc4oc(-c5ccc(F)cc5)nc34)C2)CC1 [Cpd 1257] |  | 0.827 µM | Kd (mutant MGL; [4]): 0.009 µM
34 | CCCCC/C=C\C/C=C\C/C=C\C/C=C\CCCC(=O)N1CC(N2CCN(C(=O)c3nccs3)CC2)C1 [Cpd 639] | 0.132 µM | 0.419 µM | 
35 | Cc1nc(-c2ccccc2F)sc1C(=O)N1CC(N2CCN(C(=O)c3nccs3)CC2)C1 [Cpd 1202] | 0.065 µM | 0.152 µM | 
36 | O=C(c1ccc2c(c1)ncn2C1CCC(F)(F)CC1)N1CC(N2CCN(C(=O)c3nccs3)CC2)C1 [Cpd 759] |  | 0.579 µM | Kd (mutant MGL; [5]): 0.037 µM
37 | O=C(c1ccc(Oc2ccccc2Cl)nc1)N1CC(N2CCN(C(=O)c3cscn3)CC2)C1 [Cpd 811] | 3.33 µM | 2.15 µM | 
38 | Cc1c(C(=O)N2CC(N3CCN(C(=O)c4ccc[nH]4)CC3)C2)n(C)c2ccc(Cl)cc12 [Cpd 733] |  | 0.24 µM | Kd (mutant MGL; [6]): 0.453 µM
39 | O=C(c1ccc2nn(Cc3cccc(C(F)(F)F)c3)cc2c1)N1CC(N2CCN(C(=O)c3nccs3)CC2)C1 [Cpd 1039, 5-({3-[4-(1,3-Thiazol-2-ylcarbonyl)piperazin-1-yl]azetidin-1-yl}carbonyl)-2-[3-(trifluoromethyl)benzyl]-2H-indazole] |  | 0.005 µM | Kd (mutant MGL; [5]): 0.007 µM
40 | O=C(c1ccc2c(c1)C(Cc1cccc(C(F)(F)F)c1)(Cc1cccc(C(F)(F)F)c1)C(=O)N2Cc1cccc(C(F)(F)F)c1)N1CC(N2CCN(C(=O)c3nccs3)CC2)C1 [Cpd 1430, 5-({3-[4-(1,3-Thiazol-2-ylcarbonyl)piperazin-1-yl]azetidin-1-yl}carbonyl)-1,3,3-tris[3-(trifluoromethyl)benzyl]-1,3-dihydro-2H-indol-2-one] | 50 µM | 9.89 µM | 
41 | O=C(c1ccc(Oc2ccccn2)cc1)N1CC(N2CCN(C(=O)C(F)(F)F)CC2)C1 [Cpd 869] |  | 12.9 µM | Kd (mutant MGL; [5]): 6.2 µM
42 | COc1cccc2c(C)c(C(=O)N3CC(N4CCN(C(=O)c5nccs5)CC4)C3)[nH]c12 [Cpd 760] | 0.199 µM | 0.581 µM | 
43 | Cc1cc2c(ccn2-c2ccc(F)cc2)cc1C(=O)N1CC(N2CCN(C(=O)c3nccs3)CC2)C1 [Cpd 1415] |  | 0.115 µM | Kd (mutant MGL; [5]): 0.011 µM
44 | O=C(c1ccc2c(c1)[S+]([O-])c1ccccc1O2)N1CC(N2CCN(C(=O)c3nccs3)CC2)C1 (stereo not shown) [Cpd 807] |  | 2.08 µM | Kd (mutant MGL; [5]): 3.65 µM
45 | O=C(c1ccc(-n2ccc(C(F)(F)F)n2)cc1)N1CC(N2CCN(C(=O)c3cscn3)CC2)C1 [Cpd 1302] |  | 4.95 µM | Kd (mutant MGL; [4]): 2.5 µM
46 | Cc1c(Cc2ccc(C(F)(F)F)cc2)cccc1C(=O)N1CC(N2CCN(C(=O)c3cncs3)CC2)C1 [Cpd 1015] | 1.18 µM | 0.777 µM | 
47 | COCCOc1ccc(C(=O)N2CC(N3CCN(C(=O)c4nccs4)CC3)C2)cc1 [Cpd 782] |  | 1.07 µM | Kd (mutant MGL; [6]): 0.463 µM
